Test results published in the supplement of paper PMC9663587.

What was measured:
[1] = compound: CC(=O)c1c(C)c2cnc(Nc3ccc(N4CCNCC4)cn3)nc2n(C2CCCC2)c1=O
[2] = compound: CNc1nc(-c2ccc3c(N)n[nH]c3c2)cc(N2C[C@@H](C(=O)NC3CCCCC3)CC[C@H]2C)n1
[3] = compound: CN1CC[C@H](c2c(O)cc(O)c3c(=O)cc(-c4ccccc4Cl)oc23)[C@H](O)C1 [Flavopiridol]
[4] = compound: CC[C@@H]1C(=O)N(C)c2cnc(Nc3ccc(C(=O)N[C@H]4CC[C@H](N5CCN(CC6CC6)CC5)CC4)cc3OC)nc2N1C(C)C [Volasertib/BI6727]
[5] = compound: C1=CC(=CC(=C1)N2C(=O)C=CC3=CN=C4C=CC(=CC4=C32)C5=CN=C(C=C5)N)C(F)(F)F [Torin2]
[6] = compound: Cc1nc(-c2cn3c(n2)-c2ccc(-c4cnn(C(C)(C)C(N)=O)c4)cc2OCC3)n(C(C)C)n1 [Taselisib/GDC0032]
[7] = compound: CS(=O)(=O)N1CCN(Cc2cc3nc(-c4cccc5[nH]ncc45)nc(N4CCOCC4)c3s2)CC1 [Pictilisib/GDC0941]
[8] = compound: CC(C)n1nc(-c2ccc3oc(N)nc3c2)c2c(N)ncnc21 [INK128/MLN0128]
[9] = compound: CC(C)NC[C@@H](C(=O)N1CCN(c2ncnc3c2[C@H](C)C[C@H]3O)CC1)c1ccc(Cl)cc1 [Ipatasertib/GDC0068]
[10] = compound: Cc1nc(Nc2ncc(C(=O)Nc3c(C)cccc3Cl)s2)cc(N2CCN(CCO)CC2)n1 [Dasatinib]
[11] = compound: NC(=O)Nc1cc(-c2cccc(F)c2)sc1C(=O)N[C@H]1CCCNC1 [AZD7762]
[12] = compound: CN1CCN(C(=O)c2ccc3cc(CCNc4ncnc5ccc(C#N)cc45)ccc3c2)CC1 [senexin b]
[13] = compound: O=C1NC(=O)[C@@H](c2cn3c4c(cccc24)CCC3)[C@@H]1c1c[nH]c2ccccc12 [Tivantinib/ARQ197]
[14] = compound: C[C@@H]1COCCN1c1cc(C2([S@](C)(=N)=O)CC2)nc(-c2cc[nH]c3nccc2-3)n1 [AZD6738]
[15] = compound: CC1=CN2C(=O)C=C(N=C2C(=C1)C(C)NC3=CC=CC=C3)N4CCOCC4 [TGX221]
[16] = compound: Cc1nc(NC(=O)N2CCC[C@H]2C(N)=O)sc1-c1ccnc(C(C)(C)C(F)(F)F)c1 [Alpelisib/BYL719]
[17] = compound: C=CCn1c(=O)c2cnc(Nc3ccc(N4CCN(C)CC4)cc3)nc2n1-c1cccc(C(C)(C)O)n1 [AZD1775]
[18] = compound: O=C(c1cc(Cc2n[nH]c(=O)c3ccccc23)ccc1F)N1CCN(C(=O)C2CC2)CC1 [Olaparib/AZD2281]
[19] = compound: CC(=O)Nc1cccc(-n2c(=O)n(C3CC3)c(=O)c3c(Nc4ccc(I)cc4F)n(C)c(=O)c(C)c32)c1
[20] = compound: COc1ccc2c(c1)[C@]1(C[C@H]1c1ccc3c(/C=C/c4ccc(CN5C[C@@H](C)O[C@@H](C)C5)cc4)n[nH]c3c1)C(=O)N2
[21] = compound: COc1cccc2c1C(=O)c1c(O)c3c(c(O)c1C2=O)C[C@@](O)(C(=O)CO)C[C@@H]3O[C@H]1C[C@H](N)[C@H](O)[C@H](C)O1 [Doxorubicin]
[22] = compound: CN(C)C/C=C/C(=O)Nc1ccc(C(=O)Nc2cccc(Nc3ncc(Cl)c(-c4c[nH]c5ccccc45)n3)c2)cc1 [THZ1]
[23] = compound: CN(C)C/C=C/C(=O)Nc1ccc(C(=O)N2CCC[C@@H](Nc3ncc(Cl)c(-c4c[nH]c5ccccc45)n3)C2)cc1 [THZ531]
[24] = compound: C1=CC2=C(C=CC(=C2)C=C3C(=O)NC(=NCC4=CC=CS4)S3)N=C1 [R0-3306]
[25] = compound: COc1cc2c(Oc3ccc4[nH]c(C)cc4c3F)ncnc2cc1OCCCN1CCCC1 [Cediranib/AZD2171]
[26] = compound: CN(C)CC[C@H](CSc1ccccc1)Nc1ccc(S(=O)(=O)NC(=O)c2ccc(N3CCN(Cc4ccccc4-c4ccc(Cl)cc4)CC3)cc2)cc1[N+](=O)[O-] [ABT-737]
[27] = compound: CNCc1ccc(-c2[nH]c3cc(F)cc4c3c2CCNC4=O)cc1 [Rucaparib]
[28] = compound: CN(C)C(=O)c1cc2cnc(Nc3ccc(N4CCNCC4)cn3)nc2n1C1CCCC1 [LEE011/Ribociclib]
[29] = compound: CCC1=CN=CN=C1N2CCN(CC2)CC3=NC4=C(N3)C=C(C=C4)C(F)(F)F
[30] = compound: CC(C)Nc1cc(-c2c[nH]c(C(=O)N[C@H](CO)c3cccc(Cl)c3)c2)c(Cl)cn1 [BVD523]
[31] = compound: CNC(=O)c1cccc(-c2ccc3c(N4CCOC[C@@H]4C)nc(N4CCOC[C@@H]4C)nc3n2)c1 [AZD2014]
[32] = compound: Cc1nn(C)c(COc2ccc(N3CCN(S(=O)(=O)N(C)C)CC3)cc2)c1-c1cccc2c(CCCOc3cccc4ccccc34)c(C(=O)O)n(CCN3CCOCC3)c12
[33] = compound: CCOc1cc2ncc(C#N)c(Nc3ccc(OCc4ccccn4)c(Cl)c3)c2cc1NC(=O)/C=C/CN(C)C [Neratinib/HKI272]
[34] = compound: CO[C@@H](C)Cn1c(=O)n(C)c2cnc3ccc(-c4cncc(C(C)(C)O)c4)cc3c21
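Also: breast cancer and non-malignant breast epithelial cell lines, Deep Dye Drop or Dye Drop imaging, nine half-log doses, GR normalized to time-zero plates and DMSO-only controls.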

Cell Line	GR50, 72 h [1]	GR50, 72 h [2]	GR50, 72 h [3]	GR50, 72 h [4]	GR50, 72 h [5]	GR50, 72 h [6]	GR50, 72 h [7]	GR50, 72 h [8]	GR50, 72 h [9]	GR50, 72 h [10]	GR50, 72 h [11]	GR50, 72 h [12]	GR50, 72 h [13]	GR50, 72 h [14]	GR50, 72 h [15]	GR50, 72 h [16]	GR50, 72 h [17]	GR50, 72 h [18]	GR50, 72 h [19]	GR50, 72 h [20]	GR50, 72 h [21]	GR50, 72 h [22]	GR50, 72 h [23]	GR50, 72 h [24]	GR50, 72 h [25]	GR50, 72 h [26]	GR50, 72 h [27]	GR50, 72 h [28]	GR50, 72 h [29]	GR50, 72 h [30]	GR50, 72 h [31]	GR50, 72 h [32]	GR50, 72 h [33]	GR50, 72 h [34]
MDAMB436	> 3.16 µM	> 10 µM	0.159 µM	0.00518 µM	0.0412 µM	4.66 µM	5.27 µM	0.0241 µM	> 10 µM	> 10 µM	0.04 µM	8.65 µM	0.368 µM	9.07 µM	> 10 µM	> 10 µM	0.175 µM	1.53 µM	> 1 µM	0.00237 µM	0.00761 µM	0.135 µM	0.19 µM	4.65 µM	3.61 µM	> 10 µM	0.828 µM	> 10 µM	4.75 µM	> 10 µM	> 10 µM	> 10 µM	0.715 µM	–
MGH312	> 3.16 µM	0.0356 µM	0.0997 µM	0.00804 µM	0.00596 µM	0.0386 µM	0.0806 µM	0.00245 µM	0.037 µM	0.00371 µM	0.202 µM	0.511 µM	0.379 µM	–	0.155 µM	6.6 µM	1.27 µM	> 10 µM	> 1 µM	0.00114 µM	0.00621 µM	0.00839 µM	0.0332 µM	5.42 µM	3.88 µM	2.19 µM	> 10 µM	> 10 µM	4.84 µM	> 10 µM	< 0.001 µM	> 10 µM	0.168 µM	< 0.001 µM
